{"source": "patent US20230346889A9", "about": "“TREATMENT OF ACUTE HEART FAILURE” (AnaCardio R&D AB, priority 2019, published 2023)", "key": {"rat HF models": {"test_system": "rat HF models", "conditions": "cited from earlier work"}, "[1]": {"test_system": "phosphorylation of serine 23-24 on troponin I", "test": "Cardiomyocyte protein immunoblotting of troponin I phosphorylation", "format": "cell-based, mouse", "conditions": "for troponin I serine 23-24 phosphorylation signal: 15 min treatment, vs placebo", "method": "Isolated cardiomyocytes were treated for 15 min in different conditions (Placebo, Ghrelin, D-Lys 3 GHS-R1a, D-Lys 3 GHS-R1a+Ghrelin). Thereafter cardiomyocytes were pelleted and homogenated. Protein lysates were separated by electrophoresis and transferred onto membranes. Membranes were incubated with primary antibody: rabbit phospho-troponin I (cardiac) ([…]) antibody (Cell Signaling #4004), mouse troponin 1 (Millipore MAB1691A). Then infrared-labelled secondary antibodies (IRDye 680 and IRDye 800, 1:5000, Licor) were used. Immunoreactive bands were analyzed using the Odyssey Infrared Imaging System. Band densities were quantified with Image J, normalized to GAPDH and final data expressed as fold increase compared to Placebo group."}, "[2]": {"test_system": "patients with advanced CHF and reduced EF", "test": "Trial safety and clinical outcomes (hypotension, arrhythmia, ischemia, symptoms, events)", "format": "in vivo, human", "method": "Safety outcomes included reduction in systolic blood pressure, hypotension, and symptomatic hypotension, prolongation of the QTc, ischemia, and arrhythmia during or after infusion, and clinical outcomes.\nThe following symptoms were assessed as yes or no prior to infusion and after 30, 60, 120 min and 30 min after infusion and at the 2-5 days follow-up; headache, dizziness, dyspnea, central chest pain, flush, sleepiness, upset stomach and other symptoms. The following signs were recorded prior to start of infusion and after lunch; rales, peripheral oedema, jugular venous distension, hepatomegaly and S3 gallop.\nHypotension was assessed in two ways: The difference in change in blood pressure between the groups was quantified, and hypotension in any one patient was defined as a drop of systolic blood pressure of >20 mm Hg or to <80 mm Hg.\n(§1) The difference in change in heart rate between the groups was quantified. Bradycardia was defined as a reduction in heart rate of >15 beats per minute, to a heart rate <40 beats per minute, an increase in PQ time by >20 ms, or AV block II-III. In individual patients, tachycardia was defined as an increase in heart rate by >10 beats per minute or heart rate >110 beats per minute. Ventricular extraystoles were quantified and ventricular tachycardia was defined as non-sustained if ≥3 beats in a row up to ≤30 seconds, and sustained if >30 seconds. Supra-ventricular arrhythmia was defined as ectopic atrial tachycardia, atrial flutter or atrial fibrillation, or AV-nodal tachycardia of >3 seconds duration. Ghrelin may […] hERG channels and as such cause a prolongation of the QTc interval on the EKG, which theoretically could predispose to arrhythmia. Therefor we monitored QTc.\nIschemia was assessed in two ways: The difference in change in troponin T between the groups was quantified, and ischemia in any one patient was defined as symptoms of ECG changes consistent with ischemia, or a rise in troponin T of >50%.\nPatients were followed in the medical record until 30 Apr. 2017. Outcomes were freedom from all-cause death; all cause death or HF hospitalization; all cause death or heart transplantation or left ventricular assist device, and a combination of all these."}, "[3]": {"test_system": "patients with advanced CHF and reduced EF", "test": "Trial QTc interval (12-lead ECG, Bazett)", "format": "in vivo, human", "method": "A plethysmographic based (finger-cuff) approach was used to measure blood pressure (Nexfin®, BMEYE B.V., Amsterdam, The Netherlands). Nexfin was also used for heart rate monitoring. Heart rate and blood pressure data were measured continuously, beat-by-beat, throughout the study protocol. The data was then averaged over 15 minutes following the Innocor measurements. In addition EKG was assessed before start of and during infusion at 60 and 120 minutes and after the ad lib lunch. QT intervals were measured in the precordial lead V5 in 12-lead surface ECGs, at 50 mm/sec paper speed and 10 mm/mV amplitude. Heart rate corrected QT intervals (QTc) were manually calculated with the Bazett formula, QTc=QT/RR^1/2, using the RR interval preceding the measured QT interval. The mean QTc from 3 heart beats was recorded.\nas §1"}, "[4]": {"test_system": "intracellular cAMP concentration", "test": "cAMP measurement in cardiomyocytes (direct immunoassay kit)", "format": "cell-based, mouse", "conditions": "vs placebo", "method": "The intracellular cAMP concentration was measured using the cAMP direct Immunoassay kit (Abcam ab65355). Briefly, frozen cardiomyocytes pellets from groups described above (Placebo, Ghrelin, D-Lys 3 GHS-R1a+Ghrelin) were homogenized on ice using volume of 0.1 M HCl to obtain a protein concentration of 1 mg/ml. Acetylated supernatants of samples were used for the incubation with antibodies in ELISA plates according to the kit manufacturer. Finally, the optic density absorbance at 450 nm was analyzed using a microplate reader (Biotek, Synergy 2). The concentration of cAMP was normalized, dividing the resulting readout (pmol/ml) by the total protein concentration (mg/ml) for each sample. The experiments were conducted by an operator blinded regarding the treatment of the animals."}, "[5]": {"conditions": "After infusion, prior to discharge"}}, "note": "Where “and” joins values, the source holds several entries; their conditions need not be identical. Equal entries are not always repeated. Entries after “also recorded” stand apart in the source; their conditions may differ.", "data": [{"smiles": "CCCCCCCC(=O)OC[C@H](NC(=O)[C@H](CO)NC(=O)CN)C(=O)N[C@@H](Cc1ccccc1)C(=O)N[C@@H](CC(C)C)C(=O)N[C@@H](CO)C(=O)N1CCC[C@H]1C(=O)N[C@@H](CCC(=O)O)C(=O)N[C@@H](Cc1cnc[nH]1)C(=O)N[C@@H](CCC(N)=O)C(=O)N[C@@H](CCCNC(=N)N)C(=O)N[C@H](C(=O)N[C@@H](CCC(N)=O)C(=O)N[C@@H](CCC(N)=O)C(=O)N[C@@H](CCCNC(=N)N)C(=O)N[C@@H](CCCCN)C(=O)N[C@@H](CCC(=O)O)C(=O)N[C@@H](CO)C(=O)N[C@@H](CCCCN)C(=O)N[C@@H](CCCCN)C(=O)N1CCC[C@H]1C(=O)N1CCC[C@H]1C(=O)N[C@@H](C)C(=O)N[C@@H](CCCCN)C(=O)N[C@@H](CC(C)C)C(=O)N[C@@H](CCC(N)=O)C(=O)N1CCC[C@H]1C(=O)N[C@@H](CCCNC(=N)N)C(=O)O)C(C)C", "note": "[Ghrelin]", "values": [{"measurement": "CO and fractional shortening", "setting": "rat HF models; rat HF models (Nagaya et al., 2001d)", "value": "increased CO and fractional shortening"}, {"measurement": "cardiac sympathetic activity and LV remodeling", "setting": "rat HF models; rat myocardial infarction models", "value": "reduced cardiac sympathetic activity and left ventricular (LV) remodeling"}, {"measurement": "total troponin I expression", "setting": "[1]", "value": "without change"}, {"measurement": "troponin I serine 23-24 phosphorylation signal", "setting": "[1]", "value": "less cTnI phosphorylation (hypophosphorylation)"}, {"measurement": "troponin I serine 23-24 phosphorylation signal", "setting": "[1]; listed as ghrelin", "value": "lower compared to placebo"}, {"measurement": "troponin T in the one patient with >50% increase", "setting": "[2]; Baseline", "value": 31, "unit": "ng/L"}, {"measurement": "patients with flush", "setting": "[2]; at 60 min, vs. 0 placebo, p=0.006", "value": 7}, {"measurement": "troponin T in the one patient with >50% increase", "setting": "[2]; at FU", "value": 164, "unit": "ng/L"}, {"measurement": "incidence of hypotension", "setting": "[2]; drop of systolic BP >20 mm Hg or to <80 mm Hg", "value": "no incidence of hypotension; also recorded: no events of hypotension or symptomatic hypotension"}, {"measurement": "troponin T in the one patient with >50% increase", "setting": "[2]; during infusion (successive samples)", "value": "38 ng/L and 42 ng/L and 43 ng/L and 34 ng/L"}, {"measurement": "patients with a >50% increase in troponin T", "setting": "[2]; ghrelin group (n = 15)", "value": "One"}, {"measurement": "effect on heart rate", "setting": "[2]; human, in vivo", "value": "no effect"}, {"measurement": "incidence of ventricular tachy or brady arrhythmias", "setting": "[2]; human, in vivo", "value": "no effect"}, {"measurement": "symptoms or EKG changes consistent with ischemia", "setting": "[2]; human, in vivo", "value": "no symptoms or EKG changes consistent with ischemia"}, {"measurement": "clinical events vs placebo", "setting": "[2]; over 90 days follow-up", "value": "no differences in clinical events"}, {"measurement": "Maximal QTc prolongation from baseline", "setting": "[3]; 2-5 days after", "value": "+47 ms"}, {"measurement": "Median (interquartile range) changes in QTc from baseline", "setting": "[3]; 2-5 days after", "value": "−4 (−34 to +4) ms"}, {"measurement": "Maximal QTc prolongation from baseline", "setting": "[3]; [5]", "value": "+47 ms"}, {"measurement": "Median (interquartile range) changes in QTc from baseline", "setting": "[3]; [5]", "value": "+18 (−10 to +30) ms"}, {"measurement": "Maximal QTc prolongation from baseline", "setting": "[3]; During infusion, 60 minutes", "value": "+36 ms"}, {"measurement": "Median (interquartile range) changes in QTc from baseline", "setting": "[3]; During infusion, 60 minutes", "value": "+4 (−7 to +21) ms"}, {"measurement": "Maximal QTc prolongation from baseline", "setting": "[3]; During infusion, 120 minutes", "value": "+45 ms"}, {"measurement": "Median (interquartile range) changes in QTc from baseline", "setting": "[3]; During infusion, 120 minutes", "value": "+8 (−4 to +26) ms"}, {"measurement": "change in QTc", "setting": "[3]; in vivo", "value": "nominal but not significant increase"}, {"measurement": "cAMP concentration in cardiomyocytes", "setting": "[4]", "value": "reduces"}, {"measurement": "cAMP concentration in cardiomyocytes", "setting": "[4]; listed as ghrelin", "value": "lower compared to placebo"}]}]}
